# Data published in patent US20090099064A1, “Derivatized insulin oligomers” (Diabecore Medical Inc.,, priority 2006, published 2009).
# Where two headings read alike, the source gives them in different places.
# How the values were obtained:
# [1] = U.S. Pat. No. 5,453,417 & PCT/CA92/00082; cited from earlier work
# [2] = test system: pancreatectomized diabetic beagle dogs; experiment: Intravenous injection into pancreatectomized diabetic dogs, blood glucose
# diabetic beagle dogs = experiment: Subcutaneous injection into diabetic dogs, glucose suppression; type: in vivo; settings: compared with unmodified insulin
# Protocol: FIG. 4. Subcutaneous injection of human insulin and P-insulin oligomers into diabetic beagle dogs.
# The formulation of example 3 containing P-insulin oligomers of sequence ID NO.2 and with 3:1 M:M protamine/insulin or unmodified insulin were injected subcutaneously into diabetic dogs.
# L6 rat myocytes = experiment: 2-deoxyglucose uptake in L6 rat myocyte cell cultures; type: cell-based; settings: 60 min incubation
# Protocol: FIG. 5. Dose response curve of human & porcine & P-insulin oligomers in L6 rat myocytes. Cells were incubated for 60 min. in the various concentrations of each insulin in separate experiments. 2-deoxyglucose uptake was then measured.
# P-insulin oligomers of sequence ID NO. 1 were tested in L6 rat myocyte cell cultures for their ability to cause glucose uptake.
# [3] = test system: pancreatectomized diabetic beagle dogs; settings: dog, in vivo, iv
# [4] = phase 3 clinical trials; cited from earlier work
# Sprague-Dawley rats = experiment: Pulmonary (intratracheal) administration to Sprague-Dawley rats, whole blood glucose; type: in vivo
# Protocol: FIG. 6. Glucose response of Sprague-Dawley rats to […] of phosphorylated insulin hexamer. Rats were injected at Oh and glucose levels measured for 12 h. As shown, glucose levels dropped by 2 h post-dosing and remained suppressed out to 11 h post-dose, after which they returned to baseline or pre-dose levels.
# Via the pulmonary route, six Sprague-Dawley rats (BW 250-360 g.) were administered 4 mg of phosphorylated insulin oligomer (in the form of hexamer). The animals were dosed by intratracheal administration using a PennCentury intratracheal Aerosolizer (Microsprayer). The dose volume was 100 μL/animal. The dose concentration for the study was prepared by dilution of 30 mg/mL phosphorylated insulin hexamer in isotonic phosphate buffered normal saline, pH 7.4.
# An Antisedan cocktail consisting of atipamezole hydrochloride (1 mg/mL, 1 mg/kg) and saline was administered by subcutaneous injection at a dose volume of 1 mL/kg, following completion of the dosing process. A series of 13 blood samples (approximately 0.1 mL/sample) were collected from each animal at 1, 2, 3, 4, 5, 6, 7, 8, 9, 10, 11 and 12 hours post-dose. For this purpose, each rat (unanesthetized) was bled by jugular/tail vein venipuncture (or other site as deemed necessary) and the sample used for measuring whole blood glucose levels using the Accu Soft Advantage™ (glucometer) method. […]
# [5] = IV injection, pancreatectomized diabetic dogs
substance,measurement,setting,value
"monomeric phosphorylated insulin: monomeric phosphorylated insulin of the Lougheed patents U.S. Pat. No. 5,453,417 & PCT/CA92/00082",flattening of insulin's dose response,[1],3-4 fold
human insulin,serum half-life / duration of action (in words),"[2]; IV injection, pancreatectomized diabetic beagle dogs",short serum half-life
same,course of blood glucose after injection,[2]; [5],rapid decline in blood glucose
same,hypoglycemia,[2]; [5],pronounced hypoglycemia
same,duration of action,"[2]; given IV, pancreatectomized diabetic dogs",20 min
"P-insulin oligomers: phosphorylated insulin oligomers comprising sequence ID NOs. 1 and 2; FIG. 3 and 5 use ID NO. 1, FIG. 4 uses ID NO. 2",glucose suppression / duration of action,diabetic beagle dogs,extended duration of action
same,dose response of 2-deoxyglucose uptake,L6 rat myocytes; entire dose range,flattened dose response at all concentrations investigated
same,maximal stimulation of deoxy-glucose uptake,L6 rat myocytes; relative to human (and porcine) insulin,markedly lower than that for porcine or human insulin
same,dose at which hypoglycemia was observed,[3],"8 times the basal or ""glucose ma"
same,serum half-life / duration of action (in words),[3],extended duration of action (long serum half-life)
same,course of blood glucose after injection,[2]; [5],maintenance of normal glucose without hyperglycemia at all doses
Lantus,fasting blood glucose (FBG) achieved,[4],145 mg %
Detemir,fasting blood glucose (FBG) achieved,[4],145 mg %
"phosphorylated insulin hexamer: phosphorylated insulin oligomer in the form of hexamer, in isotonic phosphate buffered normal saline, pH 7.4",time at which glucose returned to pre-dose levels,Sprague-Dawley rats; 4 mg,≤ 12 h
same,time for which blood glucose remained below baseline post-dosing,Sprague-Dawley rats; 4 mg (FIG. 6 legend says 40 mg),11 h
